One assay concerns the target T1, STAT6 (Homo sapiens, UniProt P42226).
T1 construct: stably transfected HaCaT keratinocyte cell line, which expresses NanoLuc luciferase reporter gene under the transcriptional control of the STAT6 responsive promoter; endogenous in cells; host or cells: HaCaT keratinocyte reporter cell line (stably transfected with a NanoLuc reporter)
T1 sequence (P42226 1-847): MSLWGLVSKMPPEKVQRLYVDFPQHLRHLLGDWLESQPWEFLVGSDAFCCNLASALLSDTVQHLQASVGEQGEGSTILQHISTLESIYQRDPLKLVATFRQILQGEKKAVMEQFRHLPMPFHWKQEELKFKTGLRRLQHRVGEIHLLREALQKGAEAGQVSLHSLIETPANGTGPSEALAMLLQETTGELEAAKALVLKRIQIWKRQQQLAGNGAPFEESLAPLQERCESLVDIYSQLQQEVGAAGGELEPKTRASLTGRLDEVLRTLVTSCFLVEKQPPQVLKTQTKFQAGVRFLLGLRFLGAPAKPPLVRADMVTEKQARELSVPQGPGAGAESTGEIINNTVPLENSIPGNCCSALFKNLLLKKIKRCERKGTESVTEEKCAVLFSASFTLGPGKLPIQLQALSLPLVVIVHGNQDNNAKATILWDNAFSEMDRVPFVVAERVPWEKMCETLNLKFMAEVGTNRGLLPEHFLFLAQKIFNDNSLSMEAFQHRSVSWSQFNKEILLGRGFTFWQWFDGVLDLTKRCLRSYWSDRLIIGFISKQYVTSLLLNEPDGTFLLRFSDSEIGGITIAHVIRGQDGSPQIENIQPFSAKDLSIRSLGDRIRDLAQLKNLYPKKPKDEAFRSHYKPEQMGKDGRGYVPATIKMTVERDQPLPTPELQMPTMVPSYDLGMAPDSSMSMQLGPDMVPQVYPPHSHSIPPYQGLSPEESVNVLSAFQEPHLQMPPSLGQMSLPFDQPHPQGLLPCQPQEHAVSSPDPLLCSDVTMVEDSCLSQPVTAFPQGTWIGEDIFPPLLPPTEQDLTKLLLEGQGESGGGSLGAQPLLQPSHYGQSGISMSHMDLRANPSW
Description: STAT6 Reporter Luciferase Assay (IL-13 stimulated HaCaT keratinocyte NanoLuc reporter cells). The class given is cell-based. The following applies: read-out: Reporter EC50. The method, boiled down:
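Cells were plated overnight, washed, exposed to compound for two hours, stimulated with IL-13 (0.12 nM final) for four hours at 37 °C, and then lysed with Nano-Glo substrate for 15 min before luminescence reading.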

For assay [1], the system named is CCL17 secretion in peripheral human whole blood. Description: Human Whole Blood (HWB) CCL17 TR-FRET Assay (IL-13 stimulated CCL17 secretion). Format: cell-based. The method, boiled down:
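Heparinized peripheral human whole blood was preincubated with compound (11-point, 3-fold series, duplicate) for 2 h at 37 °C, then stimulated with IL-13 at 10 ng/mL final for 48 h at 37 °C. Secreted CCL17 in the serum was quantified by TR-FRET sandwich immunoassay (665/615 nm ratio, 16 h RT); IC50 derived.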
On the technique in general: TR-FRET usually uses a lanthanide donor and a delayed reading to cut background.

Where [2] appears, read: IL-13 stimulated HaCaT STAT6 NanoLuc reporter cells.
Setting [3] is: Homo sapiens, 48 h, human whole blood, 10 ng/mL IL13, 48 hours.
Setting [4] is: human whole blood, IL-13 stimulated, 48 hours.
[5] abbreviates: STAT6 NanoLuc luciferase reporter, IL-13 stimulated HaCaT keratinocyte cells.
The mark [6] stands for this setting: Homo sapiens, 48 h, inhibition of CCL17 secretion in human whole blood, 10 ng/mL IL13, 48 hours.
Where [7] appears, read: Homo sapiens, 48 h, human whole blood, IL-13 stimulated.

The record followed here is patent US20250320213A1, “Nitrogen-Containing Heterocyclic Compounds” (Pfizer Inc., priority 2024, published 2025).

The structures appear in SMILES notation. Where two headings read alike, the source gives them in different places.

Usually EC50 stands for the concentration that produces a half-maximal response. The IC50 is the concentration needed to halve the response being measured. A low value points to greater potency. As for `CC(C)n1nc(C(=O)NCc2ccc(NC(=O)N3CC4(CNC4)C3)c(F)c2)c2c1[C@@H](C)CN(c1ccc(C(=O)N(C)C)cc1)C2` [Example 595, (S)-5-(4-(dimethylcarbamoyl)phenyl)-N-(3-fluoro-4-(2,6-diazaspiro[3.3]heptane-2-carboxamido)benzyl)-1-isopropyl-7-methyl-4,5,6,7-tetrahydro-1H-pyrazolo[4,3-c]pyridine-3-carboxamide], the EC50 at STAT6 (setting [2]) was 64 nM. In assay [1] (setting [3]), 83 nM corresponded to half-maximal inhibition (IC50).

For `CC(CO)n1nc(C(=O)NCc2ccc(NC(=O)N(C)C)cc2)c2c1CCN(c1ccc(C(=O)N(C)C)cn1)C2` (single isomer, unassigned) [Example 359, rel-(R or S)-5-(5-(dimethylcarbamoyl)pyridin-2-yl)-N-(4-(3,3-dimethylureido)benzyl)-1-(1-hydroxypropan-2-yl)-4,5,6,7-tetrahydro-1H-pyrazolo[4,3-c]pyridine-3-carboxamide], the concentration for a half-maximal effect (EC50) on STAT6 (setting [2]) worked out at 358 nM. The same compound yielded a concentration for half-maximal inhibition (IC50) in assay [1] (setting [4]) of 869 nM.

In the case of `CC(C)n1nc(C(=O)NCc2ccc(NC(=O)N3CCCC3)cc2)c2c1CCN(c1ccc(C(=O)N(C)C)cn1)C2` [Example 136, 5-(5-(Dimethylcarbamoyl)pyridin-2-yl)-1-isopropyl-N-(4-(pyrrolidine-1-carboxamido)benzyl)-4,5,6,7-tetrahydro-1H-pyrazolo[4,3-c]pyridine-3-carboxamide], on STAT6 (setting [5]), the EC50 was found to be 12 nM. This compound displayed an IC50 in assay [1] (inhibition of CCL17 secretion in human whole blood, 10 ng/mL IL13, 48 hours) of 196 nM.

As to `CCn1nc(C(=O)NCc2ccc(NC(=O)N(C)C)cc2)c2c1C[C@H](C)N(c1ccc(C(=O)N(C)C)cn1)C2` (single isomer, unassigned) [Example 111], on STAT6 (setting [5]), the concentration giving a half-maximal response (EC50) stood at 3 nM. For the same compound, the IC50 in assay [1] (setting [6]) stood at 13 nM.

As to `COc1nc(-c2ccc(CNC(=O)c3nn(C(C)C)c4c3CN(c3ccc(C(=O)N(C)C)cc3)C[C@@H]4C)cc2)ncc1N` [Example 731, (S)-N-(4-(5-amino-4-methoxypyrimidin-2-yl)benzyl)-5-(4-(dimethylcarbamoyl)phenyl)-1-isopropyl-7-methyl-4,5,6,7-tetrahydro-1H-pyrazolo[4,3-c]pyridine-3-carboxamide], the half-maximal effective concentration (EC50) on STAT6 (setting [2]) worked out at 82 nM. The concentration for half-maximal inhibition (IC50) in assay [1] (Homo sapiens, 48 h, human whole blood, IL-13 10 ng/mL) was found to be 1250 nM.

As for `CCn1nc(C(=O)NCc2ccc(NC(=O)N(C)C)cc2)c2c1CC(C(F)(F)F)N(c1ccc(C(=O)N(C)C)cn1)C2` (single isomer, unassigned) [Example 251, rel-(R or S)-5-(5-(dimethylcarbamoyl)pyridin-2-yl)-N-(4-(3,3-dimethylureido)benzyl)-1-ethyl-6-(trifluoromethyl)-4,5,6,7-tetrahydro-1H-pyrazolo[4,3-c]pyridine-3-carboxamide], the 50% effective concentration (EC50) at STAT6 (setting [2]) was found to be 10 nM. Besides, the IC50 in assay [1] (setting [4]) turned out to be 80 nM.

Consider `C[C@@H]1CN(c2ccc(C(=O)N(C)C)cn2)Cc2c(C(=O)NCc3ccc(NC(=O)N(C)C)cc3)nn(CC(F)(F)F)c21` (single isomer, unassigned) [Example 550], for which, at STAT6 (setting [2]), the EC50 came to 11 nM. The IC50 in assay [1] (setting [3]) was determined as 85 nM.

For the compound `CCC1Cc2c(c(C(=O)NCc3ccc(NC(=O)N(C)C)cc3)nn2C(C)C)CN1c1ccc(C(=O)N(C)C)cn1` (single isomer, unassigned) [Example 268, rel-(R or S)-5-(5-(dimethylcarbamoyl)pyridin-2-yl)-N-(4-(3,3-dimethylureido)benzyl)-6-ethyl-1-isopropyl-4,5,6,7-tetrahydro-1H-pyrazolo[4,3-c]pyridine-3-carboxamide], the concentration giving a half-maximal response (EC50) at STAT6 (setting [2]) was found to be 3 nM. The same compound returned an IC50 in assay [1] (setting [4]) of 21 nM.

Regarding `CC(C)n1nc(C(=O)NCc2ccc(NC(=O)N(C)C)cc2)c2c1C(C(F)(F)F)CN(c1ccc(C(=O)N(C)C)cn1)C2` (single isomer, unassigned) [Example 547, rel-(R or S)-5-(5-(Dimethylcarbamoyl)pyridin-2-yl)-N-(4-(3,3-dimethylureido)benzyl)-1-isopropyl-7-(trifluoromethyl)-4,5,6,7-tetrahydro-1H-pyrazolo[4,3-c]pyridine-3-carboxamide], at STAT6 (setting [2]), the concentration giving a half-maximal response (EC50) came out at 0.2 nM. Besides, the IC50 in assay [1] (human whole blood, 10 ng/mL IL13, 48 hours) worked out at 3 nM.

Regarding `CC(C)n1nc(C(=O)NCc2ccc(NC(=O)N3CCC4(CC3)COC4)cc2)c2c1CCN(c1ccc(C(=O)N(C)C)cn1)C2` [Example 156, N-(4-((5-(5-(dimethylcarbamoyl)pyridin-2-yl)-1-isopropyl-4,5,6,7-tetrahydro-1H-pyrazolo[4,3-c]pyridine-3-carboxamido)methyl)phenyl)-2-oxa-7-azaspiro[3.5]nonane-7-carboxamide], on STAT6 (setting [5]), the EC50 was determined as 6 nM. The same compound displayed an IC50 in assay [1] (setting [6]) of 58 nM.

For the compound `CC(C)n1nc(C(=O)NCc2ccc(NC(=O)N3CCC4(CC3)CCN4C)c(F)c2)c2c1[C@@H](C)CN(c1ccc(C(=O)N(C)C)cn1)C2` [Example 602, (S)-5-(5-(dimethylcarbamoyl)pyridin-2-yl)-N-(3-fluoro-4-(1-methyl-1,7-diazaspiro[3.5]nonane-7-carboxamido)benzyl)-1-isopropyl-7-methyl-4,5,6,7-tetrahydro-1H-pyrazolo[4,3-c]pyridine-3-carboxamide], the concentration giving a half-maximal response (EC50) on STAT6 (setting [2]) was 1 nM. Besides, the IC50 in assay [1] (setting [3]) was 14 nM.

As for `C[C@H]1CN(c2ccc(C(=O)N(C)C)cn2)Cc2c(C(=O)NCc3ccc(NC(=O)N(C)C)cc3)nn(CC3CC3)c21` (single isomer, unassigned) [Example 287], the concentration giving a half-maximal response (EC50) on STAT6 (setting [2]) came to 1 nM. Moreover, the concentration for half-maximal inhibition (IC50) in assay [1] (setting [7]) amounted to 13 nM.

For `CNC(=O)c1ccc(CNC(=O)c2nn(C(C)C)c3c2CN(c2ccc(C(=O)N(C)C)cc2)C[C@@H]3C)cc1` [Example 605, (S)-5-(4-(dimethylcarbamoyl)phenyl)-1-isopropyl-7-methyl-N-(4-(methylcarbamoyl)benzyl)-4,5,6,7-tetrahydro-1H-pyrazolo[4,3-c]pyridine-3-carboxamide], the EC50 on STAT6 (setting [2]) was found to be 4 nM. The same compound returned an IC50 in assay [1] (setting [3]) of 37 nM.

Regarding `Cc1nn(C)c(=O)n1-c1ccc(N2Cc3c(C(=O)NCc4ccc(NC(=O)N(C)C)cc4)nn(C(C)C)c3[C@@H](C)C2)nc1` [Example 466, (S)-5-(5-(1,3-dimethyl-5-oxo-1,5-dihydro-4H-1,2,4-triazol-4-yl)pyridin-2-yl)-N-(4-(3,3-dimethylureido)benzyl)-1-isopropyl-7-methyl-4,5,6,7-tetrahydro-1H-pyrazolo[4,3-c]pyridine-3-carboxamide], on STAT6 (setting [2]), the EC50 is 2 nM. Moreover, in assay [1] (setting [7]), the half-maximal inhibitory concentration (IC50) was determined as 18 nM.

Regarding `CCn1nc(C(=O)NCc2ccc(NC(=O)N(C)C)cc2)c2c1[C@@H](C)[C@H](C)N(c1ncc(C(=O)N(C)C)cn1)C2` (single isomer, unassigned) [Example 447], the half-maximal effective concentration (EC50) on STAT6 (setting [2]) was 0.4 nM. Moreover, the half-inhibitory concentration (IC50) in assay [1] (setting [7]) was more than 413 nM.

As for `CC(C)n1nc(C(=O)NCc2ccc(NC(=O)N3CC[C@H](F)C3)cc2)c2c1CCN(c1ccc(C(=O)N(C)C)cn1)C2` [Example 153, (S)-5-(5-(dimethylcarbamoyl)pyridin-2-yl)-N-(4-(3-fluoropyrrolidine-1-carboxamido)benzyl)-1-isopropyl-4,5,6,7-tetrahydro-1H-pyrazolo[4,3-c]pyridine-3-carboxamide], on STAT6 (setting [5]), the EC50 amounted to 11 nM. For the same compound, the midpoint of inhibition in assay [1] (setting [6]), the IC50, lay at 108 nM.

As to `CC(C)n1nc(C(=O)NCc2ccc(NC(=O)N(C)C)cc2)c2c1CCN(c1ccc(-c3ncnn3C)cn1)C2` [Example 27, N-(4-(3,3-dimethylureido)benzyl)-1-isopropyl-5-(5-(1-methyl-1H-1,2,4-triazol-5-yl)pyridin-2-yl)-4,5,6,7-tetrahydro-1H-pyrazolo[4,3-c]pyridine-3-carboxamide], the concentration for a half-maximal effect (EC50) at STAT6 (setting [5]) was found to be 6 nM. The compound also registered a concentration for half-maximal inhibition (IC50) in assay [1] (setting [6]) of 91 nM.

For `CC(C)n1nc(C(=O)NCc2ccc(NC(=O)N(C)C)cc2)c2c1CCN(c1ccc(N3CCOC3=O)cn1)C2` [Example 107, N-(4-(3,3-dimethylureido)benzyl)-1-isopropyl-5-(5-(2-oxooxazolidin-3-yl)pyridin-2-yl)-4,5,6,7-tetrahydro-1H-pyrazolo[4,3-c]pyridine-3-carboxamide], at STAT6 (setting [5]), the concentration giving a half-maximal response (EC50) was found to be 13 nM. The IC50 in assay [1] (setting [6]) was 219 nM.
